Data published in PubChem BioAssay AID330 (DTP/NCI, 2004).
Several values for one entry are separate records, joined by “and”; a condition that tells them apart may be missing. Equal entries are not always repeated. Toxic doses and inconclusive results are not listed. How the source made its calls: active means survival T/C of 150% or more; inactive means T/C below 125% in these data.

Tested on: P388 leukemia ip, CD2F1 mice, survival T/C
Assay: NCI In Vivo Anticancer Drug Screen. Data for tumor model P388 Leukemia (intraperitoneal) in CD2F1 (CDF1) mice
Details: endpoint: median survival time, higher = longer survival
Summary of the method: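 Mice carrying the transplanted tumor received test compound or vehicle. Survival was recorded in each group, and the value is the treated-group measurement divided by that of the vehicle-treated control group.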

[1] = dose: 100.0 mg/kg/injection, schedule: Q01DX001 (ip), vehicle: saline with Tween-80
[2] = dose: 200.0 mg/kg/injection, schedule: Q01DX001 (ip), vehicle: saline with Tween-80
[3] = dose: 400.0 mg/kg/injection, schedule: Q01DX001 (ip), vehicle: saline with Tween-80
[4] = dose: 50.0 mg/kg/injection, schedule: Q01DX009 (ip), vehicle: Klucel (hydroxypropylcellulose) (HPC)
[5] = dose: 100.0 mg/kg/injection, schedule: Q01DX009 (ip), vehicle: Klucel (hydroxypropylcellulose) (HPC)
[6] = dose: 200.0 mg/kg/injection, schedule: Q01DX009 (ip), vehicle: Klucel (hydroxypropylcellulose) (HPC)
[7] = dose: 12.5 mg/kg/injection, schedule: Q01DX009 (ip), vehicle: saline
[8] = dose: 50.0 mg/kg/injection, schedule: Q04DX002 (ip), vehicle: saline with Tween-80
[9] = dose: 100.0 mg/kg/injection, schedule: Q04DX002 (ip), vehicle: saline with Tween-80
[10] = dose: 25.0 mg/kg/injection, schedule: Q01DX009 (ip), vehicle: Klucel (hydroxypropylcellulose) (HPC)
[11] = dose: 15.0 mg/kg/injection, schedule: Q01DX005 (ip), vehicle: saline with Tween-80
[12] = dose: 30.0 mg/kg/injection, schedule: Q01DX005 (ip), vehicle: saline with Tween-80
[13] = dose: 60.0 mg/kg/injection, schedule: Q01DX005 (ip), vehicle: saline with Tween-80
[14] = dose: 120.0 mg/kg/injection, schedule: Q01DX005 (ip), vehicle: saline with Tween-80
[15] = dose: 240.0 mg/kg/injection, schedule: Q01DX005 (ip), vehicle: saline with Tween-80
[16] = dose: 200.0 mg/kg/injection, schedule: Q04DX002 (ip), vehicle: saline with Tween-80
[17] = dose: 12.5 mg/kg/injection, schedule: Q01DX009 (ip), vehicle: Klucel (hydroxypropylcellulose) (HPC)

Measured: T/C

Cn1cc(Cl)n(C)c(=O)c1=O
inactive: dose: 6.25 mg/kg/injection, schedule: Q01DX001 (ip), vehicle: saline with Tween-80 104 % of control | dose: 12.5 mg/kg/injection, schedule: Q01DX001 (ip), vehicle: saline with Tween-80 104 % of control | dose: 25.0 mg/kg/injection, schedule: Q01DX001 (ip), vehicle: saline with Tween-80 118 % of control

C[CH2][Sn]([O][Sn]([Cl])([CH2]C)[c]1ccccc1)[c]1ccccc1 (stereo unspecified)
inactive: dose: 3.12 mg/kg/injection, schedule: Q01DX005 (ip), vehicle: Klucel (hydroxypropylcellulose) (HPC) 118 % of control | dose: 6.25 mg/kg/injection, schedule: Q01DX005 (ip), vehicle: Klucel (hydroxypropylcellulose) (HPC) 101 % of control | dose: 12.5 mg/kg/injection, schedule: Q01DX005 (ip), vehicle: Klucel (hydroxypropylcellulose) (HPC) 101 % of control

COc1ccc2c(c1O)-c1c(OC)c(O)cc3c1C(C2)NCC3 (stereo unspecified)
inactive: dose: 32.0 mg/kg/injection, schedule: Q01DX009 (ip), vehicle: Klucel (hydroxypropylcellulose) (HPC) 96 % of control | dose: 64.0 mg/kg/injection, schedule: Q01DX009 (ip), vehicle: Klucel (hydroxypropylcellulose) (HPC) 93 % of control | dose: 128.0 mg/kg/injection, schedule: Q01DX009 (ip), vehicle: Klucel (hydroxypropylcellulose) (HPC) 100 % of control | dose: 256.0 mg/kg/injection, schedule: Q01DX009 (ip), vehicle: Klucel (hydroxypropylcellulose) (HPC) 102 % of control

CC1(C)Cc2nn3c(c2C(=O)O1)CC(c1ccccc1)c1ccccc1-3 (stereo unspecified)
inactive: [1] 90 % of control | [2] 89 % of control | [3] 96 % of control

c1ccc(N2OCC3c4ccccc4-c4ccccc4C32)cc1 (stereo unspecified)
inactive: dose: 50.0 mg/kg/injection, schedule: Q04DX002 (ip), vehicle: suspension in saline 100 % of control | dose: 100.0 mg/kg/injection, schedule: Q04DX002 (ip), vehicle: suspension in saline 104 % of control | dose: 200.0 mg/kg/injection, schedule: Q04DX002 (ip), vehicle: suspension in saline 97 % of control

COc1cc(/C=N/NC(N)=O)cc(OC)c1O
inactive: [4] 105 % of control | [5] 99 % of control | [6] 98 % of control

CC(C)C12OC1C1OC13C1(C)CCC4=C(COC4=O)C1CC1OC13C2=O (stereo unspecified)
inactive: dose: 2.5 mg/kg/injection, schedule: Q01DX005 (ip), vehicle: saline + alcohol 110 % of control | dose: 5.0 mg/kg/injection, schedule: Q01DX005 (ip), vehicle: saline + alcohol 100 % of control | dose: 20.0 mg/kg/injection, schedule: Q01DX005 (ip), vehicle: saline + alcohol 114 % of control

NC(=O)c1ccc([N+](=O)[O-])o1
inactive: [7] 99 % of control | dose: 25.0 mg/kg/injection, schedule: Q01DX009 (ip), vehicle: saline 100 % of control | dose: 50.0 mg/kg/injection, schedule: Q01DX009 (ip), vehicle: saline 95 % of control | dose: 100.0 mg/kg/injection, schedule: Q01DX009 (ip), vehicle: saline 108 % of control

COc1ccc(C(=O)C2C(C(=O)c3ccccc3)C23C(=O)N(C)c2ccccc23)cc1 (stereo unspecified)
inactive: dose: 25.0 mg/kg/injection, schedule: Q04DX002 (ip), vehicle: saline with Tween-80 101 % of control | [8] 100 % of control | [9] 98 % of control

O=C(Nc1cccc(C(=O)Nc2ccc(C3=NCCN3)cc2)c1)c1ccc(C2=NCCN2)cc1
inactive: dose: 6.25 mg/kg/injection, schedule: Q01DX009 (ip), vehicle: saline 118 % of control | dose: 6.25 mg/kg/injection, schedule: Q04DX003 (ip), vehicle: saline 100 % of control | [7] 118 % of control | dose: 12.5 mg/kg/injection, schedule: Q04DX003 (ip), vehicle: saline 100 % of control | dose: 25.0 mg/kg/injection, schedule: Q04DX003 (ip), vehicle: saline 100 % of control

C=CCN(CC=C)c1cc(NN)nnc1Cl
inactive: dose: 25.0 mg/kg/injection, schedule: Q01DX009 (ip), vehicle: other 102 % of control | dose: 50.0 mg/kg/injection, schedule: Q01DX009 (ip), vehicle: other 105 % of control

O=C1c2ccccc2CCC12OC2c1cccnc1 (stereo unspecified)
inactive: [10] 100 % of control | [4] 100 % of control | [5] 104 % of control

C1CCC2(CC1)SCC1COCN12 (stereo unspecified)
inactive: dose: 100.0 mg/kg/injection, schedule: Q04DX003 (ip), vehicle: saline with Tween-80 103 % of control | dose: 200.0 mg/kg/injection, schedule: Q04DX003 (ip), vehicle: saline with Tween-80 97 % of control | dose: 400.0 mg/kg/injection, schedule: Q04DX003 (ip), vehicle: saline with Tween-80 103 % of control

CCOC(=O)/C(C#N)=C/c1ccc(C)o1
inactive: [11] 99 % of control | [12] 100 % of control | [13] 100 % of control and 101 % of control

O=c1oc2ccc(Br)cc2cc1-n1nnc2ccccc21
inactive: [11] 88 % of control | [12] 93 % of control | [13] 88 % of control and 90 % of control | [14] 86 % of control and 97 % of control | [15] 97 % of control

COc1ccc2c(c1)C(C)(C#N)N(C)C(=O)C2=O (stereo unspecified)
inactive: [1] 100 % of control | [2] 101 % of control | [3] 96 % of control

Nc1nc(N)nc(-c2cccs2)n1
inactive: dose: 25.0 mg/kg/injection, schedule: Q01DX009 (ip), vehicle: saline with Tween-80 92 % of control | dose: 50.0 mg/kg/injection, schedule: Q01DX009 (ip), vehicle: saline with Tween-80 101 % of control | [8] 92 % of control | dose: 100.0 mg/kg/injection, schedule: Q01DX009 (ip), vehicle: saline with Tween-80 100 % of control | [9] 90 % of control | [16] 106 % of control

CC1CC(=O)OC(C(=O)c2ccccc2)N1c1ccc(C(F)(F)F)cc1N (stereo unspecified)
inactive: [13] 110 % of control | [14] 108 % of control | [15] 109 % of control

CC/C(=C(\c1ccccc1)c1ccc(OCCN(C)C)cc1)c1ccccc1
inactive: dose: 0.78 mg/kg/injection, schedule: Q01DX009 (ip), vehicle: suspension in saline 94 % of control | dose: 1.56 mg/kg/injection, schedule: Q01DX009 (ip), vehicle: suspension in saline 94 % of control | dose: 3.12 mg/kg/injection, schedule: Q01DX009 (ip), vehicle: suspension in saline 94 % of control | dose: 6.25 mg/kg/injection, schedule: Q01DX009 (ip), vehicle: suspension in saline 98 % of control | [17] 105 % of control | dose: 12.5 mg/kg/injection, schedule: Q01DX009 (ip), vehicle: suspension in saline 100 % of control | [10] 102 % of control | dose: 25.0 mg/kg/injection, schedule: Q01DX009 (ip), vehicle: suspension in saline 104 % of control | dose: 50.0 mg/kg/injection, schedule: Q01DX004 (ip), vehicle: saline with Tween-80 92 % of control | [4] 110 % of control | dose: 50.0 mg/kg/injection, schedule: Q01DX009 (ip), vehicle: suspension in saline 101 % of control | dose: 100.0 mg/kg/injection, schedule: Q01DX004 (ip), vehicle: saline with Tween-80 82 % of control | [5] 117 % of control | dose: 100.0 mg/kg/injection, schedule: Q01DX009 (ip), vehicle: suspension in saline 92 % of control

O=C(Cc1nc2ccccc2nc1CC(=O)c1ccncc1)c1ccncc1
inactive: dose: 6.25 mg/kg/injection, schedule: Q01DX005 (ip), vehicle: saline with Tween-80 102 % of control | dose: 12.5 mg/kg/injection, schedule: Q01DX005 (ip), vehicle: saline with Tween-80 90 % of control | [13] 93 % of control | [15] 98 % of control

C=C[Si]12OCCN(CCO1)CCO2
inactive: [17] 119 % of control | [10] 112 % of control | [4] 114 % of control | [5] 109 % of control and 98 % of control | [6] 102 % of control | dose: 400.0 mg/kg/injection, schedule: Q01DX009 (ip), vehicle: Klucel (hydroxypropylcellulose) (HPC) 100 % of control

CNCC(=O)c1ccc(O)c(O)c1N=O
inactive: [9] 114 % of control | [16] 108 % of control | dose: 400.0 mg/kg/injection, schedule: Q04DX002 (ip), vehicle: saline with Tween-80 108 % of control

Cn1c2ccccc2c(=O)c2c([N+](=O)[O-])ccc(NCCN)c21
inactive: dose: 60.0 mg/kg/injection, schedule: Q01DX005 (ip), vehicle: saline 109 % of control | dose: 120.0 mg/kg/injection, schedule: Q01DX005 (ip), vehicle: saline 114 % of control
